Structures can show the parent of a compound that is named as a salt. Where two headings read alike, the source gives them in different places.
Key:
[1] = Approximate solubility of the crystalline free base in solvents at room temperature; assay type: physicochemical
[2] = Water absorption and behaviour on exposure to relative humidity; assay type: physicochemical
[3] = Stability test, thermal treatment (sealed ampoules, 100° C., HPLC purity); assay type: physicochemical; conditions: 1 week
Experimental: (§1) HPLC: HPLC measurements were carried out with a HP LC1090M, Column Symmetry C18, 3.0·150 mm.
The compounds of Examples 3(b) (polymorph A), 25 (polymorph B), and 36 (polymorph C) were placed in sealed ampoules and exposed for 1 week to 100° C. […] The products where analyzed by HPLC and the purity was detected to indicate chemical stability via decomposition.

[4] = Stability test, exposure to humidity (open containers, 60° C., 75% relative humidity); assay type: physicochemical; conditions: 1 week and 2 weeks
Experimental: as §1
The compounds of Examples 3(b) (polymorph A), 25 (polymorph B), and 36 (polymorph C) were placed in open containers and exposed 1 week and 2 weeks at 60° C. and 75% relative humidity. In polymorph A, a water content of 2.8% was detected and the HPLC purity was 80%.

[5] = Stability of the crystal forms (general findings); assay type: physicochemical
[6] = Stability of crystalline Form C at 60% RH and 25° C.; assay type: physicochemical; set-up: key to Powder X-Ray Diffraction (PXRD): C = Conforms with Reference; conditions: for Assay (Active Ingredient %) / Individual Related Substances (%) / Moisture, KF (%) / Powder X-Ray Diffraction (PXRD) / Product Appearance / Total Related Substances (%) / Impurity D: 25° C./60% RH
Experimental: (§2) A first batch of crystalline Form C was exposed to 60% RH (relative humidity) at 25° C. for 12 months and a second batch was exposed to 75% RH at 40° C. for 6 months. No changes in polymorphic purities were observed under all the conditions tested, and Form C was the only polymorph detected. The batches were tested for appearance, Total Drug Assay, Related Substances, moisture, and the presence of Impurity D. Appearance of the bulk drug substance was evaluated by visual inspection for color homogeneity, foreign material and texture. Total Drug Assay was determined on an HPLC system with UV detection at 226 nm. A Waters XTerra RP185 μm (4.6×250 mm) column was used at 30° C. The mobile phase was acetonitrile: 5 mM ammonium acetate, pH 10.0 (46:54 v/v). The injection volume aws 20 μL. The run time was 30 min with a flow rate of 1.0 mL/min. Related Substances were analyzed utilizing gradient reversed-phase HPLC with UV detection at 226 nm. A Waters Symmetry C183.5 μm, (150×4.6 mm) column was used at 35° C. Mobile phase A was water with 0.1% TFA and mobile phase B was acetonitrile with 0.1% TFA. The injection volume was 20 μL. The run time was 35 min with a flow rate of 1.0 mL/min. Related substances were quantitated by peak area percent. Moisture was determined with a 737 Karl Fischer Coulometric titrator. The apparatus was operated using Hydranal-Coulomat AG and Hydranal standard-0.1% water check solution-Coulomat AG.

[7] = Stability of crystalline Form C at 75% RH and 40° C.; assay type: physicochemical; set-up: key to Powder X-Ray Diffraction (PXRD): C = Conforms with Reference; conditions: 40° C./75% RH
Experimental: as §2

[8] = Solubility statements in the description
[9] = Particle size distribution; assay type: physicochemical

CC(C)COc1ccc(CNC(=O)N(Cc2ccc(F)cc2)C2CCN(C)CC2)cc1 [crystalline free base of formula I, N-(4-fluorobenzyl)-N-(1-methylpiperidin-4-yl)-N′-(4-(2-methylpropyloxy)phenylmethyl)carbamide]
solubility ([1]; acetonitrile): <50 mg/mL
solubility ([1]; ethyl acetate): <30 mg/mL
solubility ([1]; organic solvent or mixture, 1,4-dioxane, read-out: Solubility): 140 mg/mL
solubility ([1]; organic solvent or mixture, acetone, read-out: Solubility): 100 mg/mL
solubility ([1]; organic solvent or mixture, dichloromethane, read-out: Solubility): > 500 mg/mL
solubility ([1]; organic solvent or mixture, ethanol, read-out: Solubility): 260 mg/mL
solubility ([1]; organic solvent or mixture, isopropanol, read-out: Solubility): 100 mg/mL
solubility ([1]; organic solvent or mixture, methanol, read-out: Solubility): 170 mg/mL
solubility ([1]; organic solvent or mixture, tetrahydrofuran, read-out: Solubility): > 250 mg/mL
solubility ([1]; toluene): <70 mg/mL
solubility ([1]; water, read-out: Solubility): < 4 mg/mL

CC(C)COc1ccc(CNC(=O)N(Cc2ccc(F)cc2)C2CCN(C)CC2)cc1 [Form D, N-(4-fluorobenzyl)-N-(1-methylpiperidin-4-yl)-N′-(4-(2-methylpropyloxy)phenylmethyl)carbamide hemi-tartrate]
Stability in an open container ([2]; 53% relative humidity): stable

CC(C)COc1ccc(CNC(=O)N(Cc2ccc(F)cc2)C2CCN(C)CC2)cc1.CC(C)COc1ccc(CNC(=O)N(Cc2ccc(F)cc2)C2CCN(C)CC2)cc1.O=C(O)C(O)C(O)C(=O)O [Form B, N-(4-fluorobenzyl)-N-(1-methylpiperidin-4-yl)-N′-(4-(2-methylpropyloxy)phenylmethyl)carbamide hemi-tartrate]
HPLC purity after thermal treatment ([3]; listed as polymorph B): 28.3%
Change of crystal form after exposure to humidity [4]: transformed to polymorph C
HPLC purity after exposure to humidity ([4]; listed as polymorph B): 94.6%
water content after exposure to humidity ([4]; listed as polymorph B): 1.9%
Water uptake when exposed to high humidity ([2]; above 80% relative humidity): considerable water uptake
Stability under ambient water partial pressures ([2]; relative humidities between 20% and 75%): sufficient stability
Stability at ambient temperatures ([5]; ambient temperatures): stable

CC(C)COc1ccc(CNC(=O)N(Cc2ccc(F)cc2)C2CCN(C)CC2)cc1 [Form C, N-(4-fluorobenzyl)-N-(1-methylpiperidin-4-yl)-N′-(4-(2-methylpropyloxy)phenylmethyl)carbamide hemi-tartrate]
HPLC purity after thermal treatment [3]: 99.7%
State of the material after thermal treatment [3]: substantially unchanged
Change of crystal form after exposure to humidity [4]: remained unchanged
HPLC purity after exposure to humidity [4]: 99.7%
Assay (Active Ingredient %) ([6]; 0 M): 99.8%
Individual Related Substances (%) ([6]; 0 M): 0.06%
Moisture, KF (%) ([6]; 0 M): 0.3%
Powder X-Ray Diffraction (PXRD) ([6]; 0 M): C
Product Appearance ([6]; 0 M): Conforms
Total Related Substances (%) ([6]; 0 M): 0.06%
Assay (Active Ingredient %) ([6]; 1 M): 99.8%
Individual Related Substances (%) ([6]; 1 M): 0.05%
Moisture, KF (%) ([6]; 1 M): <0.1%
Powder X-Ray Diffraction (PXRD) ([6]; 1 M): C
Product Appearance ([6]; 1 M): Conforms
Total Related Substances (%) ([6]; 1 M): 0.05%
Assay (Active Ingredient %) ([6]; 3 M): 99.7%
Individual Related Substances (%) ([6]; 3 M): <0.05%
Moisture, KF (%) ([6]; 3 M): <0.1%
Product Appearance ([6]; 3 M): Conforms
Total Related Substances (%) ([6]; 3 M): <0.05%
Assay (Active Ingredient %) ([6]; 6 M): 99.8%
Individual Related Substances (%) ([6]; 6 M): 0.06%
Moisture, KF (%) ([6]; 6 M): 0.2%
Powder X-Ray Diffraction (PXRD) ([6]; 6 M): C
Product Appearance ([6]; 6 M): Conforms
Total Related Substances (%) ([6]; 6 M): <0.06%
Assay (Active Ingredient %) ([6]; 9 M): 99.4%
Impurity D ([6]; 9 M): 0.2
Individual Related Substances (%) ([6]; 9 M): <0.05%
Moisture, KF (%) ([6]; 9 M): <0.1%
Powder X-Ray Diffraction (PXRD) ([6]; 9 M): C
Product Appearance ([6]; 9 M): Conforms
Total Related Substances (%) ([6]; 9 M): <0.05%
Assay (Active Ingredient %) ([6]; 12 M): 99.1%
Impurity D ([6]; 12 M): 0.2
Individual Related Substances (%) ([6]; 12 M): 0.05%
Moisture, KF (%) ([6]; 12 M): <0.1%
Powder X-Ray Diffraction (PXRD) ([6]; 12 M): C
Product Appearance ([6]; 12 M): Conforms
Total Related Substances (%) ([6]; 12 M): 0.05%
Changes in polymorphic purities ([6]; 60% RH at 25° C. for 12 months and 75% RH at 40° C. for 6 months): No changes
Assay (Active Ingredient %) ([7]; 0 M): 99.8%
Individual Related Substances (%) ([7]; 0 M): 0.06%
Moisture, KF (%) ([7]; 0 M): 0.3%
Powder X-Ray Diffraction (PXRD) ([7]; 0 M): C
Total Related Substances (%) ([7]; 0 M): 0.06%
Assay (Active Ingredient %) ([7]; 1 M): 99.8%
Individual Related Substances (%) ([7]; 1 M): 0.05%
Moisture, KF (%) ([7]; 1 M): <0.1%
Powder X-Ray Diffraction (PXRD) ([7]; 1 M): C
Total Related Substances (%) ([7]; 1 M): 0.05%
Assay (Active Ingredient %) ([7]; 3 M): 99.5%
Individual Related Substances (%) ([7]; 3 M): <0.05%
Moisture, KF (%) ([7]; 3 M): <0.1%
Total Related Substances (%) ([7]; 3 M): <0.05%
Assay (Active Ingredient %) ([7]; 6 M): 99.7%
Individual Related Substances (%) ([7]; 6 M): 0.23%
Moisture, KF (%) ([7]; 6 M): 0.1%
Powder X-Ray Diffraction (PXRD) ([7]; 6 M): C
Total Related Substances (%) ([7]; 6 M): 0.23%
Dynamic pour absorption experiments: water absorption [2]: does not absorb water
Stability in an open container ([2]; 75% relative humidity): stable
Deliquescence or hygroscopicity ([2]; about 95% relative humidity): no deliquescence or hygroscopicity
Water absorption ([2]; at about 95% relative humidity): about 1%
Stability compared with all found crystal forms [5]: most stable form
aqueous solubility ([8]; depends on the pH in aqueous environments): 50 to 100 mg/mL
Solubility in water or aqueous systems (in words) [8]: very high

CC(C)COc1ccc(CNC(=O)N(Cc2ccc(F)cc2)C2CCN(C)CC2)cc1 [Example 60, N-(4-fluorobenzyl)-N-(1-methylpiperidin-4-yl)-N′-(4-(2-methylpropyloxy)phenylmethyl)carbamide tartrate]
diameter of about 10% of the particles [9]: ≤ 9 μm
diameter of about 50% of the particles [9]: ≤ 30 μm
diameter of about 90% of the particles [9]: ≤ 55 μm

CC(C)COc1ccc(CNC(=O)N(Cc2ccc(F)cc2)C2CCN(C)CC2)cc1 [formula I, N-(4-fluorobenzyl)-N-(1-methylpiperidin-4-yl)-N′-(4-(2-methylpropyloxy)phenylmethyl)carbamide]
Solubility in water or aqueous systems (in words) [8]: low solubility

CC(C)COc1ccc(CNC(=O)N(Cc2ccc(F)cc2)C2CCN(C)CC2)cc1 [Example 56, N-(4-fluorobenzyl)-N-(1-methylpiperidin-4-yl)-N′-(4-(2-methylpropyloxy)phenylmethyl)carbamide hemi-tartrate]
diameter of about 10% of the particles [9]: ≤ 5 μm
diameter of about 50% of the particles [9]: ≤ 18 μm
diameter of about 90% of the particles [9]: ≤ 35 μm

CC(C)COc1ccc(CNC(=O)N(Cc2ccc(F)cc2)C2CCN(C)CC2)cc1 [formula IV, N-(4-fluorobenzyl)-N-(1-methylpiperidin-4-yl)-N′-(4-(2-methylpropyloxy)phenylmethyl)carbamide hemi-tartrate]
Solubility in water or aqueous systems (in words) [8]: very good solubility
